Assay results from patent US5591762A, “Benzimidazoles useful as angiotensin-11 antagonists” (Dr. Karl Thomae GmbH, priority 1991, dated 1997).

Key:
angiotensin II-receptor = molecular target: T1, angiotensin II-receptor (Rattus norvegicus, UniProt P25095); test: Angiotensin II-receptor bonding (binding) with [125I]-angiotensin II on rat lung homogenate; conditions: 50 pM [125I]-angiotensin II, 60 min at 37° C., pH 7.40
T1 construct: The tissue (rats lung ) is homogenised in Tris-buffer; from tissue; host or cells: rat lung homogenate (washed 20,000×g pellet)
T1 sequence (P25095 1-359): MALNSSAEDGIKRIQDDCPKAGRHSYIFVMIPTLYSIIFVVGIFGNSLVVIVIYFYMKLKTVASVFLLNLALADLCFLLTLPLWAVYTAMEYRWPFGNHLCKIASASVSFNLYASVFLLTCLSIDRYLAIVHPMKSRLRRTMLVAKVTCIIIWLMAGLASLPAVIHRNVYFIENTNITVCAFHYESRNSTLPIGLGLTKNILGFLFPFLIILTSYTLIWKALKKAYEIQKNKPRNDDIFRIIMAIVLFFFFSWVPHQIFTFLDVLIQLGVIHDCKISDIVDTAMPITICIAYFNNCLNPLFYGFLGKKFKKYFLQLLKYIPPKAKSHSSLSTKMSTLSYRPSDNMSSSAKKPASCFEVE
Experimental: DESCRIPTION OF METHOD: ANGIOTENSIN II-RECEPTOR BONDING
The tissue (rats lung ) is homogenised in Tris-buffer (50 mMol Tris, 150 mMol NaCl, 5 mMol EDTA, pH 7.40) and centrifuged twice for 20 minutes at 20,000×g. The finished pellets are resuspended in incubating buffer (50 mMol Tris, 5 mMol MgCl2, 0.2% BSA, pH 7.40) 1:75, based on the moist weight of the tissue. Each 0.1 ml of homogenate is incubated for 60 minutes at 37° C. with 50 pM [^125 I]-antiotensin II (NEN, Dreieich, FRG) with increasing concentrations of the test substance in a total volume of 0.25 ml. Incubation is ended by rapid filtration through glass fibre filter mats. The filters are each washed with 4 ml of ice cold buffer (25 mMol Tris, 2.5 mMol MgCl2, 0.1% BSA, pH 7.40). The bound radioactivity is measured using a gamma-counter. The corresponding IC50 value is obtained from the dose-activity curve.

[1] = tested on: conscious renally hypertensive rats; test: Hypotensive effect in conscious renally hypertensive rats after oral administration; assay type: in vivo, rat; conditions: 10 mg/kg
Experimental: In addition, compounds D, E, F, G, H, M and O were tested on conscious renally hypertensive rats for their effect after oral administration using methods known from the literature.

[2] = tested on: rat model of renovascular hypertension (2-kidney 1-clip rat); test: Renovascular hypertension: blood pressure lowering in 2-kidney 1-clip rats (telemetry, oral); assay type: in vivo; conditions: two times daily
Text: DESCRIPTION OF METHOD: RENOVASCULAR HYPERTENSION
Blood pressure lowering effects of angiotensin-II antagonists were investigated in a rat model of renovascular hypertension. This model, the 2-kidney 1-clip rat, is characterized by an elevated renin activity (see J. Exper. Med. 59, 347-378 (1934), J. Applied Physiol. 31(1), 142-144 (1971) and Gross D. R. in "Animal Models in Cardiovascular Research: Animal Models of hypertension" Martinus Nijhoff Publishers (1985)). The compounds are given two times daily by oral administration to conscious freely moving rats which have been implanted with a chronic-use pressure transmitter to monitor blood pressure and heart rate continuously (PhysioTel® telemetry device).
Male rats (140-150 g) are anaesthetized with pentobarbitonesodium (50 mg/kg i.p.). The abdominal cavity is opened by a midline incision. A solid silver clip with an internal diameter of 0.20 mm is applied to the left renal artery as close as possible to the aorta. The contralateral kidney is not disturbed. The catheter of a pressure transmitter (TA11PA-C40) is inserted in the abdominal aorta and the transmitter fixed to abdominal musculature. The abdomen is closed with sutures. The animals are allowed to recover for several weeks and housed individually in cages.
After the implantation of the chronic-use device, blood pressure and heart rate are transmitted by telemetry and the signals are received by a RA 1010 General Purpose Receiver (Data Science Int.). Data are acquired with the Dataquest® IV 1.11 System on a Hewlett Packard Vectra ES/12 386 computer.
Compounds are dissolved in 1M HCl or 1M NaOH. To stabilize the solution β-cyclodextrin (1.8 g/v%) is added. The solutions (0.3 and 1 mg/kg/2 ml) are orally given by gavage at 10.00 a.m. and 4.00 p.m..

SMILES | IC50 (angiotensin II-receptor) [nM] | hypotensive effect [1] | further results
CCCc1nc2c(C)cc(-c3cn(CC(N)=O)cn3)cc2n1Cc1ccc(-c2ccccc2C(=O)O)cc1 [AA] | 3.4 | – | –
CCCc1nc2c(C)cc(-c3cn(CCCN(C)C)cn3)cc2n1Cc1ccc(-c2ccccc2C(=O)O)cc1 [BB] | 1.3 | – | –
CCCc1nc2c(C)cc(-c3nc4ccccc4n3C)cc2n1Cc1ccc(-c2ccccc2C(=O)O)cc1 [D] | – | exhibited a hypotensive effect | Blood pressure lowering activity ([2]; 0.3 mg/kg): -37 mmHg; Blood pressure lowering activity ([2]; 1.0 mg/kg): -68 mmHg
CCCc1nc2c(C)cc(-c3nc4ccccc4n3C)cc2n1Cc1ccc(-c2ccccc2-c2nn[nH]n2)cc1 [E] | – | exhibited a hypotensive effect | Blood pressure lowering activity ([2]; 0.3 mg/kg): -55 mmHg; Blood pressure lowering activity ([2]; 1.0 mg/kg): -78 mmHg
CCCc1nc2c(C)cc(N3Cc4ccccc4C3=O)cc2n1Cc1ccc(-c2ccccc2-c2nn[nH]n2)cc1 [F] | – | exhibited a hypotensive effect | –
CCCc1nc2c(C)cc(N3CCCCS3(=O)=O)cc2n1Cc1ccc(-c2ccccc2-c2nn[nH]n2)cc1 [G] | – | exhibited a hypotensive effect | –
CCCCc1nc2c(C)cc(N3C(=O)C(C)=C(C)C3=O)cc2n1Cc1ccc(-c2ccccc2C(=O)O)cc1 [H] | – | exhibited a hypotensive effect | –
Cc1cc(-c2nc3ccccc3n2C)cc2c1nc(C1CC1)n2Cc1ccc(-c2ccccc2C(=O)O)cc1 [M] | – | exhibited a hypotensive effect | –
CCCc1nc2c(C)cc(-c3cn4cccnc4n3)cc2n1Cc1ccc(-c2ccccc2-c2nn[nH]n2)cc1 [O] | – | exhibited a hypotensive effect | –
CCCCc1nc2c(C)cc(-c3nc4ccccc4n3C)cc2n1Cc1ccc(-c2ccccc2-c2nnn[nH]2)cc1 [T] | – | – | Blood pressure lowering activity ([2]; 0.3 mg/kg): -24 mmHg
CCCc1nc2c(C)cc(-c3cn4ccccc4n3)cc2n1Cc1ccc(-c2ccccc2-c2nnn[nH]2)cc1 [U] | – | – | Blood pressure lowering activity ([2]; 1.0 mg/kg): -43 mmHg
CCCc1nc2c(C)cc(-c3cn(C)cn3)cc2n1Cc1ccc(-c2ccccc2C(=O)O)cc1 [V] | 1.2 | – | –
CCCc1nc2c(C)cc(-c3cn(C(C)C)cn3)cc2n1Cc1ccc(-c2ccccc2-c2nn[nH]n2)cc1 [W] | 1.5 | – | –
CCCc1nc2c(C)cc(-c3coc(C)n3)cc2n1Cc1ccc(-c2ccccc2C(=O)O)cc1 [X] | 40 | – | –
CCOc1nc2ccc(-c3cn(C(C)C)cn3)cc2n1Cc1ccc(-c2ccccc2C(=O)O)cc1 [Y] | 10 | – | –
CCCc1nc2c(C)cc(-c3cn(C4CCCCCC4)cn3)cc2n1Cc1ccc(-c2ccccc2C(=O)O)cc1 [Z] | 15 | – | –
